Assay results published in patent publication US11046691B1 (IDEAYA BIOSCIENCES, INC., priority 2018, dated 2021).
pIC50: −log10 of the molar value.

Biological target: hMAT2A (Homo sapiens (Human), UniProt P31153)
Assay: Phosphate Sensor Fluorescence Assay (MAT2A enzyme inhibition)
Assay type: biochemical
Conditions: L-methionine 500 uM, ATP 500 uM
Procedure, shortened: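 Recombinant MAT2A preincubated 15 min at room temperature with compound, then reacted 1 h at room temperature with 500 uM L-methionine and 500 uM ATP in Tris pH 7.5 buffer containing PNP/7-MEG.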

hMAT2A, sequence (P31153 whole entry): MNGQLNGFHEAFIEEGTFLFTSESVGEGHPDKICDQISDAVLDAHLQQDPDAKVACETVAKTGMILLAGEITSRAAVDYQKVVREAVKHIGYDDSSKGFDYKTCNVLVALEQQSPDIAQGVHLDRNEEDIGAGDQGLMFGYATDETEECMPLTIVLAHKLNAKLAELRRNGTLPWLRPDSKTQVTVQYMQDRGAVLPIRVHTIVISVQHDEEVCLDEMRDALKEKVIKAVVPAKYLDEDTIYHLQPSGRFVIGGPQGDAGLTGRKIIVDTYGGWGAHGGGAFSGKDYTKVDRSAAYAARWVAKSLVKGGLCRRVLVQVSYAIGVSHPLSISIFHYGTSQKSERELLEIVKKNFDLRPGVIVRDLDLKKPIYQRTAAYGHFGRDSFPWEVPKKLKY

Row | SMILES | pIC50 (class symbols) | pIC50 (numeric bound)
1 | O=c1[nH]c(=O)n(-c2cccnc2)c2cc(C(F)(F)F)ccc12 [Example 362, 1-(pyridin-3-yl)-7-(trifluoromethyl)-1,3-dihydroquinazoline-2,4-dione] | > 6.70 | –
2 | O=c1[nH]c(=O)n(-c2cccc3ncsc23)c2nc(C(F)(F)F)ccc12 [Example 363, 1-benzothiazol-7-yl-7-(trifluoromethyl)-pyrido[2,3-d]pyrimidine-2,4(1H,3H)-dione] | > 6.70 | –
3 | Cc1ncccc1-n1c(=O)[nH]c(=O)c2ccc(C(F)(F)F)nc21 [Example 364, 1-(2-methylpyridin-3-yl)-7-(trifluoro-methyl)pyrido[2,3-d]pyrimidine-2,4(1H,3H)-dione] | > 6.70 | –
4 | Cc1ccncc1-n1c(=O)[nH]c(=O)c2ccc(C(F)(F)F)nc21 [Example 365, 1-(4-methylpyridin-3-yl)-7-(trifluoro-methyl)pyrido[2,3-d]pyrimidine-2,4(1H,3H)-dione] | > 6.70 | –
5 | [2H]C([2H])([2H])Nc1nc(=O)n(-c2ccccc2)c2nc(C(F)(F)F)ccc12 [Example 366, 4-((methyl-d3)amino)-1-phenyl-7-(trifluoromethyl)pyrido[2,3-d]pyrimidin-2(1H)-one] | > 6.70 | –
6 | [2H]C([2H])([2H])Nc1nc(=O)n(-c2ccccc2C)c2cc(C(F)(F)F)ccc12 [Example 367, 4-((methyl-d3)amino)-1-(o-tolyl)-7-(trifluoromethyl)quinazolin-2(1H)-one] | > 6.70 | –
7 | [2H]C([2H])([2H])Nc1nc(=O)n(-c2ccccc2Br)c2cc(Cl)ccc12 [Example 368, 1-(2-bromophenyl)-7-chloro-4-((methyl-d3)amino)quinazolin-2(1H)-one] | > 6.70 | –
8 | [2H]C([2H])([2H])Nc1nc(=O)n(-c2ccccc2)c2cc(C(F)(F)F)ccc12 [Example 369, 4-((methyl-d3)amino)-1-phenyl-7-(trifluoromethyl)quinazolin-2(1H)-one] | > 6.70 | –
9 | CNc1nc(=O)n(-c2ncccc2Cl)c2cc(Cl)ccc12 [Example 370, 7-chloro-1-(3-chloro(2-pyridyl))-4-(methylamino)hydroquinazolin-2-one] | > 6.70 | –
10 | CNc1nc(=O)n(-c2ncccc2C)c2cc(Cl)ccc12 [Example 371] | > 6.70 | –
11 | O=c1nc(N2CC(O)C2)c2ccc(C3CC3)cc2n1-c1ccccc1 [Example 372, 7-cyclopropyl-4-(3-hydroxyazetidin-1-yl)-1-phenylhydroquinazolin-2-one] | > 6.70 | –
12 | O=c1nc(NCC(F)F)c2ccc(C3CC3)cc2n1-c1ccccc1 [Example 373] | > 6.70 | –
13 | O=c1nc(N2CC[C@@H](O)C2)c2ccc(C3CC3)cc2n1-c1ccccc1 [Example 374, 4-((3R)-3-hydroxypyrrolidinyl)-7-cyclopropyl-1-phenylhydroquazolin-2-one] | > 6.70 | –
14 | Cc1ccccc1-n1c(=O)[nH]c(=O)c2ccc(C3CC3)cc21 [Example 375, 7-cyclopropyl-1-(o-tolyl)quinazoline-2,4(1H,3H)-dione] | – | < 5.00
15 | CNc1nc(=O)n(-c2cnccc2C)c2nc(C(F)(F)F)ccc12 [Example 376] | > 6.70 | –
16 | CNc1nc(=O)n(-c2cnccc2Cl)c2nc(C(F)(F)F)ccc12 [Example 377, 1-(4-chloropyridin-3-yl)-4-(methyl-amino)-7-(trifluoromethyl)pyrido[2,3-d]pyrimidin-2(1H)-one] | > 6.70 | –
17 | CNc1nc(=O)n(-c2cccnc2)c2nc(C(F)(F)F)ccc12 [Example 378, 4-(methylamino)-1-(pyridin-3-yl)-7-(trifluoromethyl)pyrido[2,3-d]pyrimidin-2(1H)-one] | > 6.70 | –
18 | [2H]C([2H])([2H])Nc1nc(=O)n(-c2ccccc2Cl)c2nc(C(F)(F)F)ccc12 [Example 379, 1-(2-chlorophenyl)-4-((methyl-d3)-amino)-7-(trifluoromethyl)pyrido[2,3-d]pyrimidin-2(1H)-one] | > 6.70 | –
19 | CNc1nc(=O)n(-c2cccnc2C)c2nc(C(F)(F)F)ccc12 [Example 380, 4-(methylamino)-1-(2-methylpyridin-3-yl)-7-(trifluoromethyl)pyrido[2,3-d]-pyrimidin-2(1H)-one] | > 6.70 | –
20 | CNc1nc(=O)n(-c2cccc3ncsc23)c2nc(C(F)(F)F)ccc12 [Example 381, 1-benzothiazol-7-yl-4-(methylamino)-7-(trifluoromethyl)pyrido[2,3-d]pyrimidin-2(1H)-one] | > 6.70 | –
21 | CCC(C)c1ccc2c(NC)nc(=O)n(-c3ccccc3)c2c1 (stereo not drawn) [Example 382, 4-(methylamino)-7-(methylpropyl)-1-phenylhydroquinazolin-2-one] | – | < 5.00
22 | Nc1nc(=O)n(-c2ccccc2)c2cc(Cl)cc(Cl)c12 [Example 383, 4-amino-5,7-dichloro-1-phenyl-hydroquinazolin-2-one] | 6.00 to 6.30 | –
23 | Cc1ccc2c(N3CC(O)C3)nc(=O)n(-c3ccccc3)c2n1 [Example 384, 4-(3-hydroxyazetidin-1-yl)-7-methyl-1-phenylpyrido[2,3-d]pyrimidin-2(1H)-one] | > 6.70 | –

Row | SMILES | pIC50 (class symbols) | pIC50 (numeric bound)
24 | O=c1nc(NCC(F)(F)F)c2ccc(C3CC3)cc2n1-c1ccccc1 [Example 385, 7-cyclopropyl-1-phenyl-4-[(2,2,2-trifluoroethyl)amino]hydroquinazolin-2-one] | > 6.70 | –
25 | O=c1nc(N2CCCC2)c2ccc(C3CC3)cc2n1-c1ccccc1 [Example 386, 7-cyclopropyl-1-phenyl-4-pyrrolidin-1-ylhydroquinazolin-2-one] | > 6.70 | –
26 | Nc1nc(=O)n(-c2ccccc2)c2cc(Cl)cc(-n3cccn3)c12 [Example 387, 4-amino-7-chloro-1-phenyl-5-pyrazol-1-ylhydroquinazolin-2-one] | 5.00 to 6.00 | –
27 | O=c1[nH]c(=O)n(-c2ccccc2Cl)c2nc(C(F)(F)F)ccc12 [Example 388, 1-(2-chlorophenyl)-7-(trifluoromethyl)-1,3-dihydropyridino[2,3-d]pyrimidine-2,4-dione] | > 6.70 | –
28 | O=c1nc(NCC(F)(F)F)c2ccc(C(F)(F)F)nc2n1-c1ccccc1Cl [Example 389, 1-(2-chlorophenyl)-4-[(2,2,2-trifluoro-ethyl)amino]-7-(trifluoro-methyl)-pyrido[2,3-d]pyrimidin-2(1H)-one] | > 6.70 | –
29 | CNc1nc(=O)n(-c2cncc(O)c2)c2nc(C(F)(F)F)ccc12 [Example 390, 1-(5-hydroxypyridin-3-yl)-4-(methyl-amino)-7-(trifluoromethyl)pyrido[2,3-d]-pyrimidin-2(1H)-one] | > 6.70 | –
30 | CNc1nc(=O)n(-c2ccnc(O)c2)c2nc(C(F)(F)F)ccc12 [Example 391, 1-(2-hydroxypyridin-4-yl)-4-(methyl-amino)-7-(trifluoromethyl)-pyrido[2,3-d]pyrimidin-2(1H)-one] | > 6.70 | –
31 | CNc1nc(=O)n(-c2cnccc2O)c2nc(C(F)(F)F)ccc12 [Example 392, 1-(4-hydroxypyridin-3-yl)-4-(methyl-amino)-7-(trifluoromethyl)pyrido[2,3-d]-pyrimidin-2(1H)-one] | – | < 5.00
32 | C#Cc1ccc2c(NC)nc(=O)n(-c3ccccc3)c2c1 [Example 394, 7-ethynyl-4-(methylamino)-1-phenyl-hydroquinazolin-2-one] | > 6.70 | –
33 | O=c1nc(N2CC[C@@H](O)C2)c2ccc(C(F)(F)F)cc2n1-c1ccccc1Cl [Example 395, 4-((3R)-3-hydroxypyrrolidin-1-yl)-1-(2-chlorophenyl)-7-(trifluoromethyl)hydro-quinazolin-2-one] | > 6.70 | –
34 | COc1nc(=O)n(-c2ccccc2)c2nc(C)ccc12 [Example 396, 4-methoxy-7-methyl-1-phenylpyrido-[2,3-d]pyrimidin-2(1H)-one] | 6.30 to 6.70 | –
35 | Cc1ccc2c(NCC(F)(F)F)nc(=O)n(-c3ccccc3)c2n1 [Example 397, 7-methyl-1-phenyl-4-[(2,2,2-trifluoro-ethyl)amino]pyrido[2,3-d]pyrimidin-2(1H)-one] | > 6.70 | –
36 | Cc1ccc2c(NCC(F)F)nc(=O)n(-c3ccccc3)c2n1 [Example 398, 4-[(2,2-difluoroethyl)amino]-7-methyl-1-phenylpyrido[2,3-d]pyrimidin-2(1H)-one] | > 6.70 | –
37 | COc1nc(=O)n(-c2ccccc2)c2cc(C3CC3)ccc12 [Example 399, 7-cyclopropyl-4-methoxy-1-phenyl-hydroquinazolin-2-one] | > 6.70 | –
38 | Nc1nc(=O)n(-c2ccccc2)c2cc(C3CC3)ccc12 [Example 400, 4-amino-7-cyclopropyl-1-phenylhydro-quinazolin-2-one] | > 6.70 | –
39 | CNc1nc(=O)n(-c2cccc(Br)c2)c2cc(Cl)ccc12 [Example 401, 1-(3-bromophenyl)-7-chloro-4-(methylamino)hydroquinazolin-2-one] | 6.30 to 6.70 | –
40 | CNc1nc(=O)n(-c2ccccc2)c2cc(Cl)cc(OCCN)c12 [Example 402, 5-(2-aminoethoxy)-7-chloro-4-(methyl-amino)-1-phenylhydroquinazolin-2-one] | 6.00 to 6.30 | –
41 | CS(=O)(=O)CCNc1nc(=O)n(-c2ccccc2Cl)c2cc(C3CC3)c(C#N)cc12 [Example 403, 1-(2-chlorophenyl)-7-cyclopropyl-4-((2-(methylsulfonyl)ethyl)amino)-2-oxo-1,2-dihydroquinazoline-6-carbonitrile] | 5.00 to 6.00 | –
42 | COc1nc(=O)n(-c2cccnc2C)c2cc(C(F)(F)F)ccc12 [Example 405] | > 6.70 | –
43 | CNc1nc(=O)n(-c2ccccc2Cl)c2cc(C3CC3)cc(OC(F)F)c12 [Example 406, 5-(difluoromethoxy)-1-(2-chlorophenyl)-7-cyclopropyl-4-(methylamino)hydro-quinazolin-2-one] | 6.30 to 6.70 | –
44 | COc1cc(C2CC2)cc2c1c(NCC1(F)CC1)nc(=O)n2-c1ccccc1Cl [Example 407, 1-(2-chlorophenyl)-7-cyclopropyl-4-{[(fluorocyclopropyl)methyl]amino}-5-methoxyhydroquinazolin-2-one] | > 6.70 | –
45 | N#Cc1cc2c(NCC3CCO3)nc(=O)n(-c3ccccc3Cl)c2cc1C1CC1 (stereo not drawn) [Example 408, 1-(2-chlorophenyl)-7-cyclopropyl-4-((oxetan-2-ylmethyl)amino)-2-oxo-1,2-dihydroquinazoline-6-carbonitrile] | 6.00 to 6.30 | –
